Experimental data from patent US6194387A, “6-O-aklyl erythromycin B oxime” (Abbott Laboratories, priority 1999, dated 2001).
Values after ≈ are worked out from the molar mass of the structure shown. Where two headings read alike, the source gives them in different places.

How the values were obtained:
EN[…] [1] = assay: in vitro antibacterial activity, agar dilution MIC; assay type: cell-based, Enterobacter aerogenes; conditions: Klebsiella aerogenes, ATCC13048
Procedure: (§1) 6-O-Methyl-9-oxime erythromycin B prepared in accordance with Examples 1 and 2 was assayed in vitro for anitbacterial activity as follows: Twelve petri dishes containing successive aqueous dilutions of the test compound mixed with 10 mL of sterilized Brain Heart Infusion (BHI) agar (Difco 0418-01-5) were prepared. Each plate was inoculated with 1:100 (or 1:10 for slow-growing strains, such as Micrococcus and Streptococcus) dilutions of up to 32 different micoorganisims, using a Steers replicatore block. The inoculated plates were incubated at 35-37° C. for 20 to 24 hours. In addition, a control plate, using BHI agar containing no test compound, was prepared and incubated at the beginning and end of each test.
(§2) An additional plate containing a compound having known susceptibility patterns for the organisms being tested and belonging to the same antibiotic class as the test compound was also prepared and incubated as further control, as well as to provide test-to-test comparability. Erythromycin A was used for this purpose.
(§3) After incubation, each disk was read. The minimum inhibitory concentration (MIC) was defined as the lowest concentration of drug yielding no growth, a slight haze, or sparsely isolated colonies on the inoculum spot as compared to the growth control.

CANDIDA ALBICANS = assay: in vitro antimicrobial activity, agar dilution MIC; assay type: cell-based; conditions: Table 2, CCH 442, read-out: MIC
Procedure: as §1, §2, §3

ESCHERICHIA COLI = assay: microbe, parasite or virus in culture; assay type: cell-based
Procedure: as §1, §2, §3

M[…] [2] = assay: in vitro antibacterial activity, agar dilution MIC; assay type: cell-based, Micrococcus pyogenes; conditions: Staphylococcus aureus, ATCC9341
Procedure: as §1, §2, §3

micoorganisims = assay: in vitro antibacterial activity, overall conclusion; assay type: cell-based
Procedure: as §1, §2, §3

KLEBSIELLA PNEUMONIAE = assay: in vitro antibacterial activity, agar dilution MIC; assay type: cell-based; conditions: ATCC8045, Table 2, ATCC 8045, read-out: MIC
Procedure: as §1, §2, §3

HAEMOPHILUS INFLUENZAE = assay: in vitro antibacterial activity, agar dilution MIC; assay type: cell-based
Procedure: as §1, §2, §3

M[…] [3] = assay: in vitro antibacterial activity, agar dilution MIC; assay type: cell-based; conditions: Micrococcus luteus, ATCC4698
Procedure: as §1, §2, §3

[4] = tested on: STAPHYLOCOCCUS PNEUMONIAE; assay: in vitro antibacterial activity, agar dilution MIC; assay type: cell-based
Procedure: as §1, §2, §3

[5] = tested on: ACINETOBACTER CALCOACETICUS; assay: in vitro antibacterial activity, agar dilution MIC; assay type: cell-based; conditions: Table 2, CMX 669, read-out: MIC
Procedure: as §1, §2, §3

PSEUDOMONAS AERUGINOSA = assay: in vitro antibacterial activity, agar dilution MIC; assay type: cell-based
Procedure: as §1, §2, §3

NOCARDIA ASTEROIDES = assay: in vitro antibacterial activity, agar dilution MIC; assay type: cell-based; conditions: ATCC9970, Table 2, ATCC 9970, read-out: MIC
Procedure: as §1, §2, §3

MYCOBACTERIIUM SMEGMATIS = assay: in vitro antibacterial activity, agar dilution MIC; assay type: cell-based; conditions: Table 2; ATCC 114; read-out: MIC
Procedure: as §1, §2, §3

STAPHYLOCOCCUS AUREUS = assay: in vitro antibacterial activity, agar dilution MIC; assay type: cell-based
Procedure: as §1, §2, §3

STAPHYLOCOCCUS PYOGENES = assay: in vitro antibacterial activity, agar dilution MIC; assay type: cell-based
Procedure: as §1, §2, §3

EN[…] [6] = assay: in vitro antibacterial activity, agar dilution MIC; assay type: cell-based; conditions: Enterococcus faecium, ATCC8043
Procedure: as §1, §2, §3

[7] = tested on: STAPHYLOCOCCUS EPIDERMIDIS; assay: in vitro antibacterial activity, agar dilution MIC; assay type: cell-based; conditions: Table 2, 3519, read-out: MIC
Procedure: as §1, §2, §3

PROVIDENCIA STUART II = assay: in vitro antibacterial activity, agar dilution MIC; assay type: cell-based; conditions: Table 2, CMX 640, read-out: MIC
Procedure: as §1, §2, §3

STAPHYLOCOCCUS BOVIS = assay: in vitro antibacterial activity, agar dilution MIC; assay type: cell-based; conditions: Table 2, A-5169, read-out: MIC
Procedure: as §1, §2, §3

PSEUDOMONAS CEPACIA = assay: in vitro antibacterial activity, agar dilution MIC; assay type: cell-based; conditions: Burkholderia cepacia; Table 2; 2961; read-out: MIC
Procedure: as §1, §2, §3

CC[C@H]1OC(=O)[C@H](C)[C@@H](O[C@H]2C[C@@](C)(OC)[C@@H](O)[C@H](C)O2)[C@H](C)[C@@H](O[C@@H]2O[C@H](C)C[C@H](N(C)C)[C@H]2O)[C@](C)(OC)C[C@@H](C)C(=NO)[C@H](C)[C@@H](O)[C@H]1C [6-O-Methyl-9-oxime erythromycin B]
MIC (EN[…] [1]): > 100 µg/mL | MIC (CANDIDA ALBICANS): > 100 µg/mL | MIC (ESCHERICHIA COLI; Table 2, DC-2): > 100 µg/mL | MIC (ESCHERICHIA COLI; Table 2, H560): 100 µg/mL (≈ 134 µM) | MIC (ESCHERICHIA COLI; Table 2, JUHL): 50 µg/mL (≈ 66.9 µM) | MIC (ESCHERICHIA COLI; Table 2, KNK 437): 100 µg/mL (≈ 134 µM) | MIC (ESCHERICHIA COLI; Table 2, SS): 0.78 µg/mL (≈ 1.04 µM) | MIC (M[…] [2]): 0.05 µg/mL (≈ 0.0669 µM) | antibacterial activity (conclusion from Tables 2 and 3) (micoorganisims): effective antibacterial agent | MIC (KLEBSIELLA PNEUMONIAE): > 100 µg/mL | MIC (HAEMOPHILUS INFLUENZAE; ATCC10211, Table 3, ATCC 10211, read-out: MIC): 16 µg/mL (≈ 21.4 µM) | MIC (HAEMOPHILUS INFLUENZAE; ATCC19418, Table 3, ATCC 19418, read-out: MIC): 32 µg/mL (≈ 42.8 µM) | MIC (HAEMOPHILUS INFLUENZAE; ATCC43095, Table 3, ATCC 43095, read-out: MIC): 8 µg/mL (≈ 10.7 µM) | MIC (HAEMOPHILUS INFLUENZAE; Table 3, CMX 503B, read-out: MIC): 16 µg/mL (≈ 21.4 µM) | MIC (HAEMOPHILUS INFLUENZAE; Table 3, CMX 504, read-out: MIC): 16 µg/mL (≈ 21.4 µM) | MIC (HAEMOPHILUS INFLUENZAE; Table 3, CMX 519A, read-out: MIC): 16 µg/mL (≈ 21.4 µM) | MIC (HAEMOPHILUS INFLUENZAE; Table 3, CMX 566A, read-out: MIC): 16 µg/mL (≈ 21.4 µM) | MIC (HAEMOPHILUS INFLUENZAE; Table 3, CMX 588A, read-out: MIC): 16 µg/mL (≈ 21.4 µM) | MIC (HAEMOPHILUS INFLUENZAE; Table 3, CMX 632A, read-out: MIC): 8 µg/mL (≈ 10.7 µM) | MIC (HAEMOPHILUS INFLUENZAE; Table 3, CMX 747C, read-out: MIC): 16 µg/mL (≈ 21.4 µM) | MIC (HAEMOPHILUS INFLUENZAE; Table 3, CMX 751, read-out: MIC): 32 µg/mL (≈ 42.8 µM) | MIC (HAEMOPHILUS INFLUENZAE; Table 3, GYR 1177, read-out: MIC): 1 µg/mL (≈ 1.34 µM) | MIC (HAEMOPHILUS INFLUENZAE; Table 3, GYR 1435, read-out: MIC): 16 µg/mL (≈ 21.4 µM) | MIC (HAEMOPHILUS INFLUENZAE; Table 3, SOL AMP R, read-out: MIC): 16 µg/mL (≈ 21.4 µM) | MIC (HAEMOPHILUS INFLUENZAE; Table 3, SPK AMP R, read-out: MIC): 16 µg/mL (≈ 21.4 µM) | MIC (M[…] [3]): 0.78 µg/mL (≈ 1.04 µM) | MIC ([4]; Table 3, 5649, read-out: MIC): 16 µg/mL (≈ 21.4 µM) | MIC ([4]; Table 3, 5654, read-out: MIC): 16 µg/mL (≈ 21.4 µM) | MIC ([4]; Table 3, 5728, read-out: MIC): > 128 µg/mL | MIC ([4]; Table 3, 5737, read-out: MIC): > 128 µg/mL | MIC ([4]; Table 3, 5979, read-out: MIC): > 128 µg/mL | MIC ([4]; Table 3, GYR 1171, read-out: MIC): 0.03 µg/mL (≈ 0.0402 µM) | MIC [5]: 50 µg/mL (≈ 66.9 µM) | MIC (PSEUDOMONAS AERUGINOSA; Table 2, 5007, read-out: MIC): > 100 µg/mL | MIC (PSEUDOMONAS AERUGINOSA; Table 2, DPHD-2862, read-out: MIC): > 100 µg/mL | MIC (PSEUDOMONAS AERUGINOSA; Table 2, DPHD-5263, read-out: MIC): > 100 µg/mL | MIC (PSEUDOMONAS AERUGINOSA; Table 2, K799/61, read-out: MIC): 1.56 µg/mL (≈ 2.09 µM) | MIC (NOCARDIA ASTEROIDES): 0.1 µg/mL (≈ 0.134 µM) | MIC (MYCOBACTERIIUM SMEGMATIS): 0.39 µg/mL (≈ 0.522 µM) | MIC (STAPHYLOCOCCUS AUREUS; ATCC6538P, Table 2, ATCC 6538P, read-out: MIC): 0.39 µg/mL (≈ 0.522 µM) | MIC (STAPHYLOCOCCUS AUREUS; Table 2, A5177, read-out: MIC): 6.2 µg/mL (≈ 8.3 µM) | MIC (STAPHYLOCOCCUS AUREUS; Table 2, A-5278, read-out: MIC): > 100 µg/mL | MIC (STAPHYLOCOCCUS AUREUS; Table 2, CMX 553, read-out: MIC): 0.78 µg/mL (≈ 1.04 µM) | MIC (STAPHYLOCOCCUS AUREUS; Table 2, CMX 642A, read-out: MIC): 0.78 µg/mL (≈ 1.04 µM) | MIC (STAPHYLOCOCCUS AUREUS; Table 2, NCTC10649M, read-out: MIC): 0.39 µg/mL (≈ 0.522 µM) | MIC (STAPHYLOCOCCUS PYOGENES; Table 2, 930): > 100 µg/mL | MIC (STAPHYLOCOCCUS PYOGENES; Table 2, EES61, read-out: MIC): 0.02 µg/mL (≈ 0.0268 µM) | MIC (STAPHYLOCOCCUS PYOGENES; Table 2, PIU 2548, read-out: MIC): 6.2 µg/mL (≈ 8.3 µM) | MIC (STAPHYLOCOCCUS PYOGENES; Table 3, 930, read-out: MIC): > 128 µg/mL | MIC (STAPHYLOCOCCUS PYOGENES; Table 3, EES61, read-out: MIC): 0.03 µg/mL (≈ 0.0402 µM) | MIC (STAPHYLOCOCCUS PYOGENES; Table 3, PIU 2548, read-out: MIC): 16 µg/mL (≈ 21.4 µM) | MIC (EN[…] [6]): 0.1 µg/mL (≈ 0.134 µM) | MIC [7]: 0.39 µg/mL (≈ 0.522 µM) | MIC (PROVIDENCIA STUART II): > 100 µg/mL | MIC (STAPHYLOCOCCUS BOVIS): 0.05 µg/mL (≈ 0.0669 µM) | MIC (PSEUDOMONAS CEPACIA): > 100 µg/mL
